Source: patent US10729636B2, “Compositions comprising peptide [sequence]” (NURITAS LIMITED, priority 2016, dated 2020)

Tests used:
Type in all cases: cell-based
[1] = system: Human Dermal Fibroblasts (HDF); experiment: Elastin production assay (ELISA); conditions: 5, 1 or 0.1 μg/ml, 96 h, compared with untreated control, FIG. 4
Description: Elastin is a highly elastic protein in connective tissue and allows many tissues in the body to resume their shape after stretching or contracting. […] Human Elastin ELISA kit assay is designed to measure Elastin in tissue or protein/peptide compositions.
Human Dermal Fibroblasts (HDF) were seeded in 24 well plates at 50,000 cells per well in DMEM containing 10% fetal calf serum (FCS), 1% Pen/strep, 1% L-glutamine and allowed to adhere for 24 h.
Following the initial 24 h incubation the cells were incubated with 5 μg/ml, 1 μg/ml or 0.1 μg/ml synthetic peptide for 96 h respectively.
After treatment, the cells were lysed using cell lysis buffer and sonicated for 10 seconds. The lysed cells were centrifuged and the supernatant was removed from each sample. Total protein concentration was determined using a BCA assay. Each sample was diluted in assay buffer to contain 10 μg total protein. 50 μl of each sample was then assayed using the […] Human Elastin ELISA kit. All steps were carried out according to the manufacturer's instructions.

Human skeletal myoblasts = experiment: Glucose uptake (2-DG), skeletal myoblasts; conditions: 3 h, compared with untreated control
Description: Glucose uptake in skeletal muscle cells was measured using 2-deoxyglucose (2-DG). 2-DG is taken up by glucose transporters and metabolized to 2-DG-6-phosphate (2-DG6P). The amount of accumulated non-metabolized 2-DG6P is proportional to glucose uptake by cells.
Human skeletal myoblasts (Sigma 150-05a) were seeded in a 96 well plate at 10,000 cells per well in Skeletal Muscle Differentiation medium and allowed to differentiated for 72 h prior to experimentation.
The differentiated cells were serum starved for 24 h prior to stimulation with insulin or synthetic peptides. After starvation, the serum free media was removed, cells rinsed with Phosphate Buffered Saline (PBS) and media replaced with 100 μl of Krebs-Ringer-Phosphate-HEPES (KRPH) and incubated for 1 h.
The cells were then stimulated with 100 nM insulin for 30 minutes or 5 μg/ml, 0.5 μg/ml or 0.05 μg/ml synthetic peptide for 3 h respectively.
Following stimulation, the cells were incubated with 10 μl/well of 2-DG solution for 40 min and glucose uptake was measured using the ‘PrismColor Glucose Uptake Assay Kit’ (Molecutools), all steps were carried out according to the manufacturer's instructions. The experiment was repeated using HACAT cells.

protein synthesis = experiment: Puromycin ELISA (protein synthesis); conditions: FIG. 10
Source text: Puromycin is an aminonucleoside antibiotic produced by the bacterium Streptomyces alboniger. It is a structural analogue of aminoacyl-transfer RNA and, as such, can be incorporated into elongating peptide chains via the formation of a peptide bond. However, whereas aminoacyl-tRNAs contain a hydrolyzable ester bond, puromycin hasn't it in the equivalent position. Thus, the binding of puromycin to a growing peptide chain prevents a new peptide bond from being formed with the next aminoacyl-tRNA. As a consequence, puromycin binding results in the termination of peptide elongation, and leads to the release of the truncated puromycin bound peptide from the ribosome. […] This later property makes puromycin a potential tool for the measurement of changes in protein synthesis rates.
1. Dispense […] Coating Buffer per well in the required number of wells in a 96 well ELISA plate. Dilute and mix the Protein extract (in the same buffer the sample is in) to […]. Immediately dispense 1 μl/well into plate.
2. Incubate the plate at 4° C. for 16-24 h.
3. Vigorously shake out contents. Wash 1× with 200 ul PBS.
4. Add 200 μl Blocking Solution (5% BSA in PBS). Incubate over the day 4-6 h at RT.
5. Dilute Puromycin antibody in Blocking solution and incubate overnight at 4° C.
8. Wash 2× with 200 ul PBS
9. […]
12. Add Stop solution and read the plate at 450 nm.

HSkMC cells = experiment: QPCR on specific genes of interest; conditions: 0.5 ug/ml, normalised by B2M, over control
Description: A volume of 2 ml of HSkMC cells were seeded in a 6 cm plate, pre-coated with collagen, at a concentration of 2×10^5 cells. Cells were allowed to adhere overnight at 37° C. 5% CO2 and the following day the growth media was replaced with 2 ml of cell differentiation media and returned to the incubator at 37° C. 5% CO2. The cell differentiation media was changed every 2 days for a period of 6 days, until the HSkMC cells were fully differentiated into myotubes. On day 7, the cell differentiation media was replaced with 2 ml of basal media and starved overnight at 37° C. 5% CO2.
On the day of the experiment, the starvation media was removed and replaced with 2 ml of basal media containing 0.5 ug/ml of SEQUENCE ID NO: 1. Untreated cells were run in parallel. The cells were incubated in this treatment for a period of 20 min at 37° C. 5% CO2, at which point the treatment media was removed and the cells were scraped in 1 ml of PBS. The cell suspension was pelleted in a microcentrifuge at 1500 rpm for 5 min, and the supernatant was removed. The cells were immediately flash frozen in liquid nitrogen and transferred to a −80° C. freezer for storage until dispatched to CROs.
Quantitative PCR was performed using a TaqMan probe based method, where target mRNA expression was quantified relative to the expression of the B2M housekeeping gene. A master mix containing primer/probe and Taqman® Gene Expression Master Mix (ABI Biosystems, CA, USA) was added to 1 μl of cDNA template. A final volume of 10 μl was pipetted into a well of a 96-well Lightcycler plate (Sarstedt, Nümbrecht, Germany) in duplicate and real time PCR was performed on a Roche Lightcycler 96 (Roche Diagnostics, Basal, Switzerland) real time thermal cycler. The threshold cycle (Ct) for each well was calculated using the instrument software. Data analysis was based on the ΔΔCt method with raw data normalised by the B2M housekeeping gene included on the plate. Results are expressed as fold change over control.
QPCR results (methods of treatment remains the same; concentration of SEQ ID 1 remains 0.5 ug/ml)

Sequence: WKDEAGKPLVK [SEQ ID NO. 1]
- elastin production [1]: increase
- glucose uptake (Human skeletal myoblasts; 0.5 μg/ml, FIG. 6): increase
- glucose uptake (Human skeletal myoblasts; 5 μg/ml, FIG. 7): increase
- protein synthesis (protein synthesis): increase
- Fold change (HSkMC cells; ACVR2B): 0.48 fold
- Fold change (HSkMC cells; Adiponectin): 1.07 fold
- Fold change (HSkMC cells; COX4I1): 0.85 fold
- Fold change (HSkMC cells; FBXO32): 1.00 fold
- Fold change (HSkMC cells; GLUT4): 1.95 fold
- Fold change (HSkMC cells; HSPA2): 0.67 fold
- Fold change (HSkMC cells; LEPR): 1.20 fold
- Fold change (HSkMC cells; Leptin): 0.51 fold
- Fold change (HSkMC cells; MSTN): 0.17 fold
- Fold change (HSkMC cells; MYOG): 0.70 fold
- Fold change (HSkMC cells; NRF1): 0.54 fold
- Fold change (HSkMC cells; PPARGC1A): 0.69 fold
- Fold change (HSkMC cells; PRKAG3): 0.35 fold
- Fold change (HSkMC cells; SIRT): 0.41 fold
- Fold change (HSkMC cells; TRIM63): 0.70 fold
- Fold change (HSkMC cells; UQCRB): 2.56 fold
